The text below walks through data of US20120122923A1, “DUAL MOLECULES CONTAINING A PEROXIDE DERIVATIVE, THEIR SYNTHESIS AND THERAPEUTIC USES” (SANOFI-AVENTIS, priority 2006, published 2012).

A short description of series [1]: Metabolic stability on human hepatic microsomes. It is filed as in vitro ADME. Conditions: for Percentage metabolization: human hepatic microsomes 1 mg/ml, 5 μM substrate, 1 mM NADPH, 20 minutes at 37° C., degradation with respect to T0. On the procedure:
These experiments were carried out on human hepatic microsomes in the presence of NADPH cofactor, necessary for the activity of the principal enzymes, namely cytochromes P-450 (CYP) and flavine mono-oxygenases (FMO). […] After 20 minutes, the reaction was stopped by adding 1 volume of acetonitrile. The supernatant was then removed after centrifuging (speed 3000 g for 10 minutes at 4° C.). The supernatant was analysed by high performance liquid chromatography coupled to a mass spectrometer (LC-MS/MS) and the degradation of each of the test compounds was calculated as a percentage (%) with respect to T0. The microsomal fractions were prepared from human hepatic tissue deriving from at least 12 different donors and frozen at −80° C. The tissue was defrosted then dried, weighed and cut into thin sheets before homogenizing. The tissue was homogenized using a Potter-Elvejheim type homogenizer at +4° C. The tissue homogenates were then centrifuged at 10000 g for 30 minutes at +4° C. […] The residue was finally taken up into suspension in a final volume of KH2PO4/K2HPO4 buffer containing 20% (v/v) of glycerol (1 ml for 2 grams of tissue). The hepatic microsomal fractions obtained were divided into aliquots (500 μl), frozen rapidly in liquid nitrogen and kept frozen at −80° C. until use. concentration of microsomal proteins: 1 mg/ml; concentration of BSA (bovine serum albumin (BSA): 1 mg/ml; concentration of substrate (test compound): 5 μM; CYP and FMO co-factors: 1 mM NADPH; Phosphate buffer (pH 7.4): 10 mM. • The reaction was initiated by adding 1 mM of NADPH and incubating for 20 minutes at 37° C., with stirring. The reaction was stopped by adding 1 volume of cold acetonitrile. • Total incubation volume=300 μl

In series [2] the test system is P. falciparum FcM29-Cameroon strain. Kind of series: Chemosensitivity test (radioactive micromethod, tritiated hypoxanthine incorporation), FcM29-Cameroon strain. It is filed as cell-based. Conditions: Plasmodium falciparum, 48 h, read-out: IC50 (concentration required to inhibit parasite growth by 50%). The protocol: (§1) Strains of P. falciparum were cultivated continuously using Trager and Jensen's method (Science, 1976, 193, 673-675): the parasites were maintained in human red blood corpuscles (O±), diluted to a blood parasite level of 2% in RPMI 1640 medium supplemented with 25 mM Hepes+24 mM NaHCO3+2 mM L-glutamine and complemented with 5% human serum from all groups.
(§2) The parasites were incubated at 37° C., in a moist atmosphere and 5% CO2.
The antimalarial activity tests were carried out using the radioactive micromethod of Desjardins et al. (Antimicrob. Agents Chemother., 1979, 16, 710-718). Each molecule was tested in triplicate. The tests were carried out in 96 well microplates. The P. falciparum strains were cultured in RPMI 1640 solutions complemented with 5% human serum with haematocrit at 2% and a blood parasite level of 1.5%. For each test, the parasites were incubated with decreasing concentrations of test compounds for 48 h at 37° C., in a moist atmosphere and 5% CO2. The artemisinin and chloroquine diphosphate were used as reference molecules. The first dilution of the test compounds was carried out at 1 mg/ml in dimethylsulphoxide. The dilution series for the successive daughter solutions was also prepared in dimethylsulphoxide. Each daughter dilution was then diluted to 1/50th in RPMI 1640 complemented with 5% human serum, all of the dilutions being made at 37° C. Said dilutions were then added to the parasites in culture in the microplates. After adding the test compound, the parasites were cultured in RPMI 1640 with 5% human serum and 1% dimethylsulphoxide. Parasite growth was measured by the incorporation of tritiated hypoxanthine (added 24 h after beginning exposure to the test compound) and compared with the incorporation in the absence of the test compound (taken as 100%). The values for IC50 (concentrations required to inhibit parasite growth by 50%) were determined by plotting the percentage inhibition as a function of the logarithm of the dose using GraphPad Prism 4® processing software (GraphPad software, Inc., 5755 Oberlin Drive, #110, San Diego, Calif. 92121, USA).

Series [3] relates to P. falciparum FcB1-Columbia strain. Kind of series: Chemosensitivity test (radioactive micromethod, tritiated hypoxanthine incorporation), FcB1-Columbia strain. It is filed as cell-based. The conditions noted are these: Plasmodium falciparum, read-out: IC50 (concentration required to inhibit parasite growth by 50%). On the procedure:
as §1, §2
The antimalarial activity tests were carried out using the radioactive micromethod of Desjardins et al. (Antimicrob. Agents Chemother., 1979, 16, 710-718). Each molecule was tested in triplicate. The tests were carried out in 96 well microplates. The P. falciparum strains were cultured in RPMI 1640 solutions complemented with 5% human serum with haematocrit at 2% and a blood parasite level of 1.5%. For each test, the parasites were incubated with decreasing concentrations of test compounds for 48 h at 37° C., in a moist atmosphere and 5% CO2. The artemisinin and chloroquine diphosphate were used as reference molecules. The first dilution of the test compounds was carried out at 1 mg/ml in dimethylsulphoxide. […] Parasite growth was measured by the incorporation of tritiated hypoxanthine (added 24 h after beginning exposure to the test compound) and compared with the incorporation in the absence of the test compound (taken as 100%). […]

Where [4] appears, read: FcM29-Cameroon strain (very strongly chloroquine-resistant), in human red blood corpuscles.
Where [5] appears, read: human hepatic microsomes, from Table 2.

The structures appear in SMILES notation. Like-named read-outs stand apart in the source and are kept apart here.

As for `CC(C)C1=C[C@H]2OC3(CCC(NCCNc4ccnc5cc(Cl)ccc45)CC3)OO[C@H]2CC1` (some centres unmarked) [DU1302, reference compound], the Percentage metabolization in series [1] is reported as 95-100%.

One may read the melting point as the temperature of the solid-liquid transition. On to `CC1(C)COC2(CCC(NC3CCC(Nc4ccnc5cc(Cl)ccc45)CC3)CC2)OO1` (stereo not drawn) [PA1103, N-(7-chloro-quinolin-4-yl)-N′-(3,3-dimethyl-1,2,5-trioxa-spiro[5.5]undec-9-yl)-cyclohexane-trans-1,4-diamine], for which the melting point was 176 °C (dec.). In addition, the IC50 in series [2] (setting [4]) was found to be 6 nM. Besides, in series [1], the Percentage metabolization is reported as 11%. Moreover, in series [1] (setting [5]), the “times less degraded than chloroquine” value was “about 3 times” and the “times less degraded than the prior art compounds” value is “about 10 times”. In series [1] (in words), the “stability in human hepatic microsomes compared with the other test compounds” value is “much more stable”.

For the compound `Clc1ccc2c(NCCN3CCC4(CC3)OCC3(CCCCC3)OO4)ccnc2c1` [PA1110, reference compound], the Percentage metabolization in series [1] is given as 98%.

As to `CC1(C)COC2(CCC(N[C@@H]3CCCC[C@H]3Nc3ccnc4cc(Cl)ccc34)CC2)OO1` (stereo partly drawn) [PA1188, N-(7-chloro-quinolin-4-yl)-N′-(3,3-dimethyl-1,2,5-trioxa-spiro[5.5]undec-9-yl)-cyclohexane-trans-1,2-diamine], the IC50 in series [2] (setting [4]) is 4 nM.

`CC1(C)COC2(CCC(NC3CCC(Nc4cc(C(F)(F)F)nc5c(C(F)(F)F)cccc45)CC3)CC2)OO1` (stereo not drawn) [PA1251, N-(2,8-bis-trifluoromethyl-quinolin-4-yl)-N′-(3,3-dimethyl-1,2,5-trioxa-spiro[5.5]undec-9-yl)-cyclohexane-trans-1,4-diamine]: the melting point is 168 °C (dec.).

As to `CC1(C)COC2(CCC(NC3CCC(Nc4ccnc5cc(C(F)(F)F)ccc45)CC3)CC2)OO1` (stereo not drawn) [PA1252, N-(3,3-dimethyl-1,2,5-trioxa-spiro[5.5]undec-9-yl)-N′-(7-trifluoromethyl-quinolin-4-yl)-cyclohexane-trans-1,4-diamine], the melting point is 166.5 °C (dec.).

With `CN(C)c1ccc2nccc(NC3CCC(NC4CCC5(CC4)OCC(C)(C)OO5)CC3)c2c1` (stereo not drawn) [PA1253, N-(3,3-dimethyl-1,2,5-trioxa-spiro[5.5]undec-9-yl)-N′-(6-dimethylamino-quinolin-4-yl)-cyclohexane-trans-1,4-diamine], the melting point was 193 °C (dec.).

In the case of `CC1OOC2(CCC(NC3CCC(Nc4ccnc5cc(Cl)ccc45)CC3)CC2)OC1C` (stereo not drawn) [PA1255, N-(7-chloro-quinolin-4-yl)-N′-(3,4-dimethyl-1,2,5-trioxa-spiro[5.5]undec-9-yl)-cyclohexane-trans-1,4-diamine], the melting point is 166 °C (dec.).

For `CC1(C)COC2(CCC(NC3CCC(Nc4ccnc5ccc(OC(F)(F)F)cc45)CC3)CC2)OO1` (stereo not drawn) [PA1305, N-(6-trifluoromethoxy-quinolin-4-yl)-N′-(3,3-dimethyl-1,2,5-trioxa-spiro[5.5]undec-9-yl)-cyclohexane-trans-1,4-diamine], the melting point was 165 °C (dec.).

Turning to `C[C@@H]1CC[C@H]2[C@@H](C)C(=O)O[C@@H]3O[C@@]4(C)CC[C@@H]1[C@]32OO4` [artemisinin, reference compound], the IC50 in series [2] (setting [4]) amounted to 5 nM; in series [3] (FcB1-Columbia strain (moderately chloroquine-resistant), in human red blood corpuscles, 48 h), 11 nM.

On to `C[C@H]1[C@H](OC(=O)CCC(=O)O)O[C@@H]2O[C@@]3(C)CC[C@H]4[C@H](C)CC[C@@H]1[C@@]24OO3` [artesunate, reference compound], for which the Percentage metabolization in series [1] is given as 100%.

In the case of `CCN(CC)CCCC(C)Nc1ccnc2cc(Cl)ccc12` (centres unmarked) [chloroquine, reference compound], the IC50 worked out at 258 nM in series [2] and 66 nM in series [3] (FCB1, 48 h). Moreover, the Percentage metabolization in series [1] turned out to be 29%.
